Target: Proteinase-activated receptor 1 (Homo sapiens) (UniProt P25116)
Experiment: Antagonist activity against PAR1 in human HT29 cells assessed as inhibition of thrombin-induced Ca2+ responses pre-incubated for 30 mins before thrombin stimulation by FLIPR assay

Chain of Proteinase-activated receptor 1 (Homo sapiens) (P25116 whole entry, looked up): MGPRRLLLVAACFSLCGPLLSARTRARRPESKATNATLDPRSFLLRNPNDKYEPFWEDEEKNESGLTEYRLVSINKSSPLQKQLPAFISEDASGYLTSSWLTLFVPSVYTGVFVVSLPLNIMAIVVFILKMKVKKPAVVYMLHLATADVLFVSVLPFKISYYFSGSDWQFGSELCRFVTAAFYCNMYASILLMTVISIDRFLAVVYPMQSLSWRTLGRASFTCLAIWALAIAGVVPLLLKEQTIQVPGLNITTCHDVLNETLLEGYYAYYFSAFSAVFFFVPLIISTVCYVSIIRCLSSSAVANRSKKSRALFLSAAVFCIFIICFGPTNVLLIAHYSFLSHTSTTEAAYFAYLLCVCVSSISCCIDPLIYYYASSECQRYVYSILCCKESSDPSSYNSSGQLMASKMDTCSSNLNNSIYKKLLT

| SMILES | IC50 [µM] |
| --- | --- |
| CCOC(=O)[C@H]1CCCN(C(=O)c2cn3nc(-c4ccc(F)cc4)cc(C(F)(F)F)c3n2)[C@@H]1C | 5.5 |
| CC(C)(C)OC(=O)N1CCN(C(=O)c2cn3nc(-c4ccc(F)cc4)cc(C(C)(C)C)c3n2)C(C)(C)C1 | > 50 |
| CC(C)c1cc(-c2ccc(F)cc2)nn2cc(C(=O)N3CCN(C(=O)Cc4ccsc4)[C@@H](C)C3)nc12 | > 0.5 |

— ChEMBL document CHEMBL3580588, “Inhibitors of the PAR-2 Signaling Pathway May Treat Pain and Inflammation” (ACS Med Chem Lett, 2015)
